Measured values from the supplement of paper PMC10627819.

Tests used:
[1] = system: S. aureus Newman; test: Bliss interaction score (quartile over a dose matrix) (fitness difference); higher = more antagonism (negative = synergy)
Method in brief: (§1)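 Growth was read as OD595 when cultures entered stationary phase, and each value was divided by the plate's robust no-drug mean and capped at 1. This normalised ratio is the fitness value, and fitness for each single drug came from the combination data. The Bliss score subtracts the expected fitness, taken as the product, from the observed fitness and is given as quartiles across technical, biological and donor/recipient replicates.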

[2] = system: S. pneumoniae D39V; test: as above
Method in brief: as §1

[3] = system: S. aureus DSM 20231; test: as above
Method in brief: as §1

[4] = system: B. subtilis 168; test: as above
Method in brief: as §1

[5] = system: S. aureus Newman; test: fitness (endpoint OD595 vs no drug) (fraction); higher = more growth
Method in brief: (§2)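 Growth medium was TSB, LB Lennox or CY, and plates were kept at 37 °C. Inoculation was at OD595 0.01 in 384-well plates, at 30 µl per well or 55 µl for S. pneumoniae. OD595 was monitored every 30 min for 14 h and background-subtracted using the first reading. Fitness is the optical density on entering stationary phase divided by the robust mean of no-drug controls, with values capped at 1.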

[6] = system: S. aureus DSM 20231; test: as above
Method in brief: as §2
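Throughout, for Bliss interaction score (quartile over a dose matrix): first quartile when negative (synergy) and third quartile when positive (antagonism).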
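Throughout, for fitness (endpoint OD595 vs no drug): OD595 on entry to stationary phase over no-drug wells; at most 1.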

O=C(N[C@H](CO)[C@H](O)c1ccc([N+](=O)[O-])cc1)C(Cl)Cl [Chloramphenicol] + C[n+]1ccc(-c2cc[n+](C)cc2)cc1 [Paraquat]
Conditions | Bliss interaction score
[1] | -0.058
[2] | 0.0595
[3] | 0.0604
[4] | 0.0402

fitness
Conditions | first compound 0.75 µg/mL | first compound 1.5 µg/mL | first compound 3 µg/mL
[5], partner 1.25 µg/mL | 0.724 | 0.423 | 0.164
[5], partner 2.5 µg/mL | 0.715 | 0.429 | 0.15
[5], partner 5 µg/mL | 0.739 | 0.476 | –
[6], partner 1.25 µg/mL | 0.684 | 0.564 | 0.121
[6], partner 2.5 µg/mL | 0.711 | 0.626 | 0.159
[6], partner 5 µg/mL | 0.688 | 0.618 | 0.158

O=C(N[C@H](CO)[C@H](O)c1ccc([N+](=O)[O-])cc1)C(Cl)Cl [Chloramphenicol] + Cc1cc(NS(=O)(=O)c2ccc(N)cc2)no1 [Sulfamethoxazol]
Conditions | Bliss interaction score
[1] | 0.0702
[2] | -0.0682
[3] | -0.0341
[4] | 0.0483

fitness
Conditions | first compound 0.75 µg/mL | first compound 1.5 µg/mL | first compound 3 µg/mL
[5], partner 1 µg/mL | 0.837 | 0.583 | 0.199
[5], partner 2 µg/mL | 0.899 | 0.652 | 0.172
[5], partner 4 µg/mL | 0.909 | 0.647 | 0.179
[6], partner 1 µg/mL | 0.614 | 0.541 | 0.115
[6], partner 2 µg/mL | 0.652 | 0.526 | 0.102
[6], partner 4 µg/mL | 0.709 | 0.49 | –

[5], partner 8 µg/mL, one replicate
Conditions | fitness
first compound 0.75 µg/mL | 0.889
first compound 1.5 µg/mL | 0.694
first compound 3 µg/mL | 0.35

O=C(N[C@H](CO)[C@H](O)c1ccc([N+](=O)[O-])cc1)C(Cl)Cl [Chloramphenicol] + Cc1onc(-c2ccccc2)c1C(=O)N[C@@H]1C(=O)N2[C@@H]1SC(C)(C)[C@@H]2C(=O)O [Oxacillin]
Conditions | Bliss interaction score
[1] | 0.0445
[2] | 0.0937
[3] | 0.0696
[4] | -0.0473

fitness
Conditions | first compound 0.75 µg/mL | first compound 1.5 µg/mL | first compound 3 µg/mL
[5], partner 0.0156 µg/mL | 0.734 | 0.573 | 0.253
[5], partner 0.0312 µg/mL | 0.617 | 0.484 | 0.143
[5], partner 0.0625 µg/mL | 0.555 | 0.359 | –
[6], partner 0.0156 µg/mL | 0.677 | 0.461 | –
[6], partner 0.0312 µg/mL | 0.6 | 0.392 | 0.113
[6], partner 0.0625 µg/mL | 0.489 | 0.478 | 0.0972

O=C(N[C@H](CO)[C@H](O)c1ccc([N+](=O)[O-])cc1)C(Cl)Cl [Chloramphenicol] + Cn1nnc(-c2ccc(-c3ccc(N4C[C@H](CO)OC4=O)cc3F)cn2)n1 [Tedizolid]
Conditions | Bliss interaction score
[1] | -0.179
[2] | -0.068
[3] | -0.157
[4] | -0.101

fitness
Conditions | partner 0.0625 µg/mL | partner 0.125 µg/mL | partner 0.25 µg/mL
[5], first compound 3 µg/mL | – | 0.095 | 0.0603
[6], first compound 0.75 µg/mL | 0.584 | 0.538 | 0.189
[6], first compound 1.5 µg/mL | 0.412 | 0.285 | 0.168
[6], first compound 3 µg/mL | 0.0827 | 0.07 | 0.0466

CCC[C@@H]1C[C@@H](C(=O)N[C@@H]([C@H]2O[C@H](SC)[C@H](O)[C@@H](O)[C@H]2O)[C@H](C)Cl)N(C)C1 [Clindamycin] + CCCCCCCCCC(=O)N[C@@H]1[C@H]([C@@H]([C@H](O[C@H]1OC2=C3C=C4C=C2OC5=C(C=C(C=C5)[C@H]([C@H]6C(=O)N[C@@H](C7=C(C(=CC(=C7)O)OC8[C@H]([C@H]([C@@H]([C@H](O8)CO)O)O)O)C9=C(C=CC(=C9)[C@H](C(=O)N6)NC(=O)[C@@H]4NC(=O)[C@@H]1C2=CC(=CC(=C2)OC2=C(C=CC(=C2)[C@H](C(=O)N[C@H](CC2=CC(=C(O3)C=C2)Cl)C(=O)N1)N)O)O)O)C(=O)O)O[C@H]1[C@@H]([C@H]([C@@H]([C@H](O1)CO)O)O)NC(=O)C)Cl)CO)O)O [Teicoplanin]
main component drawn
Conditions | Bliss interaction score
[1] | 0.137
[2] | -0.0604
[3] | 0.0389
[4] | -0.117

fitness, main component drawn
Conditions | partner 0.1562 µg/mL | partner 0.3125 µg/mL | partner 0.625 µg/mL
[5], first compound 0.0312 µg/mL | 0.679 | 0.864 | 0.854
[5], first compound 0.0625 µg/mL | 0.448 | 0.431 | 0.483
[5], first compound 0.125 µg/mL | 0.0629 | 0.0636 | 0.0614
[6], first compound 0.125 µg/mL | 0.0489 | 0.0449 | 0.0526

fitness, [5], one replicate, main component drawn
Conditions | first compound 0.0312 µg/mL | first compound 0.0625 µg/mL | first compound 0.125 µg/mL
partner 0.62 µg/mL | 0.86 | 0.74 | 0.358
partner 1.24 µg/mL | 0.938 | 0.839 | 0.307
partner 2.48 µg/mL | 0.755 | 0.726 | 0.154
